{
  "source": "patent US20240115530A1",
  "about": "“ADMINISTRATION OF BAIBA TO INCREASE BENEFIT OF LOSING WEIGHT OF INTERMITTENT FASTING” (NANJING NUTRABUILDING BIO-TECH CO., LTD., priority 2021, published 2024)",
  "assay_type_in_all_cases": "in vivo, C57BL/6 male mice",
  "key": {"[1]": {"experiment": "Blood glucose and oral glucose tolerance test (OGTT) in HFD-fed obese mice", "conditions": "150 mg/kg daily per oral, vs same regimen without L-BAIBA", "from_the_text": "(§1) Each study group consisted of ten animals, and treatment details of the individual study groups are given below: • Group A (GA, NC): Normal mice, maintained on normal diet for 11 weeks, receiving neither EODF nor L-BAIBA treatment. • Group B1 (GB1, HFD): Obese mice, maintained on high fat diet (HFD) for 11 weeks, receiving neither EODF nor L-BAIBA treatment. • Group B2 (GB2, HFD+EODF): Obese mice, maintained on HFD for 11 weeks, receiving only EODF and no L-BAIBA treatment. • Group B3 (GB3, HFD+BAIBA): Obese mice, maintained on HFD for 11 weeks, receiving only L-BAIBA treatment and no EODF. • Group B4 (GB4, HFD+EODF+BAIBA): Obese mice, maintained on HFD for 11 weeks, receiving L-BAIBA treatment and EODF combination.\n(§2) L-BAIBA was administered daily via per oral route according to a level of 150 mg/kg body weight. Animals not receiving L-BAIBA were given orally with ultrapure water.\n(§3) Intermittent fasting model: HFD fed male mice in groups at 8 weeks of age were randomly assigned into either ad libitum, or every-other-day-fasting (EODF) groups on a per cage basis. All cage bedding was changed to paper bedding for the duration of the model. […]\nGlucose levels in blood were measured weekly (week 12-19) on the starting day of every week before the day's EODF and L-BAIBA dosing activities. […]"}, "[2]": {"experiment": "Blood lipid biochemistry (TG, TCHO, LDL, VLDL) in HFD-fed obese mice", "conditions": "150 mg/kg daily per oral, end of study, with or without EODF, vs same regimen without L-BAIBA", "from_the_text": "as §1, §2\nIntermittent fasting model: HFD fed male mice in groups at 8 weeks of age were randomly assigned into either ad libitum, or every-other-day-fasting (EODF) groups on a per cage basis. All cage bedding was changed to paper bedding for the duration of the model. Mice in the EODF group had total deprivation of food and ad libitum access to water from 1200 h-1200 h on alternate days with ad libitum food and water access. EODF cages were changed upon induction of fasting. Ad libitum control mice cages were changed every other day with fresh food provided.\n50 C57BL/6 male mice aged about 8 weeks, are randomly assigned to five study groups (GA, GB1, GB2, GB3, GB4) of ten mice each (two cages, 1 cage, n=5 per condition).\nThe same procedures were conducted as above-discussed Example 1.\nAt the end of the study, blood was collected from all test groups and a various clinical parameter were determined: triglyceride (TG), total cholesterol (TCHO), low-density lipoprotein (LDL) and very low-density lipoprotein (VLDL). FIG. 2a-2d are the results of TG, TCHO, LDL and VLDL in all test groups, respectively. […] This effect persists for as long as the test protocol is continued."}, "[3]": {"experiment": "Serum insulin and leptin by ELISA in HFD-fed obese mice", "conditions": "150 mg/kg daily per oral, end of treatment period, with or without EODF, vs same regimen without L-BAIBA", "from_the_text": "as §1, §2, §3\nSerum levels of insulin and leptin were determined at the end of the treatment period by standard ELISA methods. […]"}, "[4]": {"experiment": "Body weight reduction in HFD-fed obese mice with or without EODF", "conditions": "150 mg/kg daily per oral, 8-week treatment, vs same regimen without L-BAIBA", "protocol": "50 C57BL/6 male mice aged about 8 weeks, are randomly assigned to five study groups (GA, GB1, GB2, GB3, GB4) of ten mice each (two cages, 1 cage, n=5 per condition). Each animal's body weight is measured by a weight scale and recorded.\nThe total experimental time is 19 weeks, including two periods: an eleven-week induction period and a subsequent eight-week treatment period.\nas §1\nL-BAIBA was administered daily via per oral route according to a level of 150 mg/kg body weight. […]\nEach mouse's body weight is measured weekly during the study at 1200 h. FIG. 1 is the average body weight of mice in all test groups (Body weight were recorded from the beginning of the experiment). […]"}},
  "data": [
    {"smiles": "C[C@@H](CN)C(=O)O", "note": "[L-BAIBA, L-β-aminoisobutyric acid]", "values": [
      {"measurement": "glucose tolerance (OGTT)", "setting": "[1]; OGTT after the treatment period, with or without EODF", "value": "better glucose tolerance"},
      {"measurement": "blood glucose level", "setting": "[1]; measured weekly week 12-19, with or without EODF", "value": "greater reduction in blood glucose level"},
      {"measurement": "low-density lipoprotein (LDL) level in blood", "setting": "[2]", "value": "lower levels"},
      {"measurement": "total cholesterol (TCHO) level in blood", "setting": "[2]", "value": "lower levels"},
      {"measurement": "triglyceride (TG) level in blood", "setting": "[2]", "value": "lower levels"},
      {"measurement": "very low-density lipoprotein (VLDL) level in blood", "setting": "[2]", "value": "lower levels"},
      {"measurement": "insulin resistance (serum insulin)", "setting": "[3]", "value": "improved"},
      {"measurement": "leptin resistance (serum leptin)", "setting": "[3]", "value": "improved leptin resistance"},
      {"measurement": "body weight", "setting": "[4]", "value": "greater reduction in body weight"}
    ]}
  ]
}
